Results from the supplement of paper PMC10307832.

How the values were obtained:
Test in all cases: relative viability (nuclei count vs DMSO), 5 days (fraction); higher = more cells survive
[1] = test system: BEN
Procedure, shortened: (§1)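 After 5 days of treatment, lung cancer cells in 1536-well plates were fixed and stained in a single step (final 0.05% Triton X-100, 1% formaldehyde, 1 ug/ml Hoechst) and their nuclei counted on 4× images. Treatment had been applied by pin tool the day after seeding as one drug alone or as a fixed anchor-drug dose with five library-drug doses (not always all listed) in √10 steps. Relative viability is the nuclei count of treated wells divided by that of vehicle wells, and values are medians of duplicate plates.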

[2] = test system: EMC-BAC-2
Procedure, shortened: as §1

[3] = test system: H3255
Procedure, shortened: as §1

[4] = test system: HOP-62
Procedure, shortened: as §1

[5] = test system: LCLC-97TM1
Procedure, shortened: as §1

[6] = test system: LXF-289
Procedure, shortened: as §1

[7] = test system: NCI-H1563
Procedure, shortened: as §1

[8] = test system: NCI-H1915
Procedure, shortened: as §1

[9] = test system: NCI-H1993
Procedure, shortened: as §1

[10] = test system: NCI-H2009
Procedure, shortened: as §1

[11] = test system: NCI-H2023
Procedure, shortened: as §1

[12] = test system: NCI-H2085
Procedure, shortened: as §1

[13] = test system: NCI-H2126
Procedure, shortened: as §1

[14] = test system: NCI-H2347
Procedure, shortened: as §1

[15] = test system: NCI-H322M
Procedure, shortened: as §1

[16] = test system: NCI-H358
Procedure, shortened: as §1

[17] = test system: NCI-H647
Procedure, shortened: as §1

[18] = test system: NCI-H661
Procedure, shortened: as §1

[19] = test system: NCI-H727
Procedure, shortened: as §1

[20] = test system: PC-14
Procedure, shortened: as §1

[21] = test system: SK-LU-1
Procedure, shortened: as §1

[22] = test system: SW 1573
Procedure, shortened: as §1

With `Clc1ccc(Nc2nnc(Cc3ccncc3)c3ccccc23)cc1` [Vatalanib] + Cc1nc(NC(=O)N2CCC[C@H]2C(N)=O)sc1-c1ccnc(C(C)(C)C(F)(F)F)c1 [Alpelisib] (partner 2 µM) the relative viability ([1]; first compound 0.04 µM) was 1.05, the relative viability ([1]; first compound 0.1265 µM) was 0.945 and the relative viability ([1]; first compound 0.4 µM) was 1.09. For the same molecule, the relative viability ([1]; first compound 1.265 µM) was 1.18, the relative viability ([1]; first compound 4 µM) was 1.04 and the relative viability ([2]; first compound 0.04 µM) was 0.714. It also gave a relative viability ([2]; first compound 0.1265 µM) of 0.714, a relative viability ([2]; first compound 0.4 µM) of 0.72 and a relative viability ([2]; first compound 1.265 µM) of 0.74. It also gave a relative viability ([2]; first compound 4 µM) of 0.729, a relative viability ([3]; first compound 0.04 µM) of 0.649 and a relative viability ([3]; first compound 0.1265 µM) of 0.666. The relative viability ([3]; first compound 0.4 µM) was 0.514, the relative viability ([3]; first compound 1.265 µM) was 0.705 and the relative viability ([3]; first compound 4 µM) was 0.618. It also gave a relative viability ([4]; first compound 0.04 µM) of 0.981, a relative viability ([4]; first compound 0.4 µM) of 1.07 and a relative viability ([4]; first compound 1.265 µM) of 1.12. For the same molecule, the relative viability ([4]; first compound 4 µM) was 0.855, the relative viability ([5]; first compound 0.04 µM) was 0.248 and the relative viability ([5]; first compound 0.1265 µM) was 0.2. The relative viability ([5]; first compound 0.4 µM) was 0.262, the relative viability ([5]; first compound 1.265 µM) was 0.178 and the relative viability ([5]; first compound 4 µM) was 0.353. The relative viability ([6]; first compound 0.04 µM) was 1.08, the relative viability ([6]; first compound 0.1265 µM) was 1.01 and the relative viability ([6]; first compound 0.4 µM) was 1.06. For the same molecule, the relative viability ([6]; first compound 1.265 µM) was 0.964, the relative viability ([6]; first compound 4 µM) was 0.995 and the relative viability ([7]; first compound 0.04 µM) was 0.937. For the same molecule, the relative viability ([7]; first compound 0.1265 µM) was 0.862, the relative viability ([7]; first compound 0.4 µM) was 1.03 and the relative viability ([7]; first compound 1.265 µM) was 0.863. It also gave a relative viability ([7]; first compound 4 µM) of 0.979, a relative viability ([8]; first compound 0.04 µM) of 1.03 and a relative viability ([8]; first compound 0.1265 µM) of 1.05. It also gave a relative viability ([8]; first compound 0.4 µM) of 1.06, a relative viability ([8]; first compound 1.265 µM) of 1.04 and a relative viability ([8]; first compound 4 µM) of 1.1. It also gave a relative viability ([9]; first compound 0.04 µM) of 0.581, a relative viability ([9]; first compound 0.1265 µM) of 0.68 and a relative viability ([9]; first compound 0.4 µM) of 0.678. It also gave a relative viability ([9]; first compound 1.265 µM) of 0.634, a relative viability ([9]; first compound 4 µM) of 0.707 and a relative viability ([10]; first compound 0.04 µM) of 1.14. For the same molecule, the relative viability ([10]; first compound 0.1265 µM) was 1.07, the relative viability ([10]; first compound 0.4 µM) was 1.2 and the relative viability ([10]; first compound 1.265 µM) was 1.13. It also gave a relative viability ([10]; first compound 4 µM) of 1.22, a relative viability ([11]; first compound 0.04 µM) of 0.611 and a relative viability ([11]; first compound 0.1265 µM) of 0.537. The relative viability ([11]; first compound 0.4 µM) was 0.657, the relative viability ([11]; first compound 1.265 µM) was 0.492 and the relative viability ([11]; first compound 4 µM) was 0.561. It also gave a relative viability ([12]; first compound 0.04 µM) of 0.923, a relative viability ([12]; first compound 0.1265 µM) of 0.94 and a relative viability ([12]; first compound 0.4 µM) of 1.04. For the same molecule, the relative viability ([12]; first compound 1.265 µM) was 0.97, the relative viability ([12]; first compound 4 µM) was 0.893 and the relative viability ([13]; first compound 0.04 µM) was 0.714. It also gave a relative viability ([13]; first compound 0.1265 µM) of 0.75, a relative viability ([13]; first compound 0.4 µM) of 0.761 and a relative viability ([13]; first compound 1.265 µM) of 0.725. For the same molecule, the relative viability ([13]; first compound 4 µM) was 0.742, the relative viability ([14]; first compound 0.04 µM) was 1.05 and the relative viability ([14]; first compound 0.1265 µM) was 1.13. For the same molecule, the relative viability ([14]; first compound 0.4 µM) was 1.03, the relative viability ([14]; first compound 1.265 µM) was 0.963 and the relative viability ([14]; first compound 4 µM) was 1.03. The relative viability ([15]; first compound 0.04 µM) was 0.775, the relative viability ([15]; first compound 0.1265 µM) was 0.709 and the relative viability ([15]; first compound 0.4 µM) was 0.75. The relative viability ([15]; first compound 1.265 µM) was 0.782, the relative viability ([15]; first compound 4 µM) was 0.795 and the relative viability ([16]; first compound 0.04 µM) was 0.88. It also gave a relative viability ([16]; first compound 0.1265 µM) of 0.741, a relative viability ([16]; first compound 0.4 µM) of 1.09 and a relative viability ([16]; first compound 1.265 µM) of 0.824. For the same molecule, the relative viability ([16]; first compound 4 µM) was 0.876, the relative viability ([17]; first compound 0.04 µM) was 1.11 and the relative viability ([17]; first compound 0.1265 µM) was 1.05. The relative viability ([17]; first compound 0.4 µM) was 1.19, the relative viability ([17]; first compound 1.265 µM) was 1.1 and the relative viability ([17]; first compound 4 µM) was 1.05. For the same molecule, the relative viability ([18]; first compound 0.04 µM) was 0.617, the relative viability ([18]; first compound 0.1265 µM) was 0.557 and the relative viability ([18]; first compound 0.4 µM) was 0.717. It also gave a relative viability ([18]; first compound 1.265 µM) of 0.653, a relative viability ([18]; first compound 4 µM) of 0.519 and a relative viability ([19]; first compound 0.04 µM) of 0.463. The relative viability ([19]; first compound 0.1265 µM) was 0.528, the relative viability ([19]; first compound 0.4 µM) was 0.666 and the relative viability ([19]; first compound 1.265 µM) was 0.397. It also gave a relative viability ([19]; first compound 4 µM) of 0.566, a relative viability ([20]; first compound 0.04 µM) of 0.993 and a relative viability ([20]; first compound 0.1265 µM) of 0.9. It also gave a relative viability ([20]; first compound 0.4 µM) of 0.97, a relative viability ([20]; first compound 1.265 µM) of 0.904 and a relative viability ([20]; first compound 4 µM) of 0.866. It also gave a relative viability ([21]; first compound 0.04 µM) of 1.09, a relative viability ([21]; first compound 0.1265 µM) of 0.983 and a relative viability ([21]; first compound 0.4 µM) of 1.31. For the same molecule, the relative viability ([21]; first compound 1.265 µM) was 1.02, the relative viability ([21]; first compound 4 µM) was 1.04 and the relative viability ([22]; first compound 0.04 µM) was 0.75. For the same molecule, the relative viability ([22]; first compound 0.1265 µM) was 0.598, the relative viability ([22]; first compound 0.4 µM) was 0.749 and the relative viability ([22]; first compound 1.265 µM) was 0.79. The relative viability ([22]; first compound 4 µM) was 0.667.
